Consider 17 compounds from US20220298174A1, “TETRACYCLIC COMPOUND, PREPARATION METHOD THEREFOR AND USE THEREOF” (SHANGHAI JEMINCARE PHARMACEUTICALS CO., LTD, priority 2019, published 2022).

Holding throughout (type): cell-based
In assay [1] the test system is pERK (Thr202/Tyr204) in NCI-H358 cells expressing mutant RAS (G12C). The assay is described as follows: Inhibition of RAS-mediated signal transduction: p-ERK ELISA normalized to Janus green. The following applies: for pIC50: NCI-H358 cells, 2 hours of treatment, ELISA, read-out: p-ERK IC50 (NCI H358). The method, then:
NCI-H358 cells (ATCC accession No. CRL-5807) expressing mutant RAS (G12C) were cultured in an RPMI medium containing 10% fetal bovine serum, penicillin/streptomycin double antibody. The cells were plated on to a 96-well plate (Corning Cat. No. 3699) at 40,000 cells per well and left standing overnight to adhere to the bottom of the plate. The cells were treated with or without the compounds of the present disclosure (dimethylsulfoxide, DMSO), with a final DMSO concentration of 0.5% ensured. After 2 hours of treatment, the medium was removed, and 4% paraformaldehyde (Beyotime Cat. No. E672002-0100) was added. The resulting mixture was left standing for 20 min. After being immobilized, the cells were washed with PBS and incubated with pre-cooled methanol for 10 min to permeabilize the cell membrane. Non-specific antibody binding was blocked by incubation for 1 h with 1× blocking buffer (Thermo Cat. No. 37520).
The ERK phosphorylation level was detected by enzyme-linked immunosorbent assay (ELISA). A phospho-ERK antibody (Cell Signal Technology Cat. No. 4370) was 1:400 diluted with 1× blocking solution containing 0.05% tween 20 and added to the 96-well plate for overnight incubation at 4° C. The plate was washed 5 times with PBS containing 0.05% tween 20. An HRP-conjugated secondary antibody (Thermo Cat. No. 31460) was 1:10,000 diluted with 1× blocking buffer containing 0.05% tween 20 and added to the 96-well plate for incubation for 2 h at room temperature. The plate was washed 5 times with PBS containing 0.05% Tween and incubated with TMB (Thermo Cat. No. 4816) at room temperature for 15 min. The reaction was terminated with 1 mol/L H2SO4, and the OD values were read at a wavelength of 450 nm using an EnVision (PerkinElmer).
The total number of cells per well was measured using the Janus green staining method. The 96-well plate after the detection of the ERK phosphorylation level was washed to colorlessness with PBS and incubated with 0.1% Janus green (Abcam Cat. No. ab111622) for 10 min. After washing with double distilled water, the plate was incubated with 0.1 mol/L HCl with shaking for 10 min. The OD values were read at a wavelength of 595 nm using an EnVision (PerkinElmer).
The signal values of pERK (Thr202/Tyr204) were normalized using the signal values of Janus green, and the inhibition percentages relative to the DMSO reference were calculated after treatment with the drugs. The percentage values were subjected to four-parameter dose response curve fitting to generate IC50 values.
In general terms: ELISA stands for enzyme-linked immunosorbent assay.

Assay [2] relates to NCI-H358 cells expressing KRAS-G12C. As to the kind of experiment: Cell proliferation assay (Cell Titer Glo), NCI-H358. The following applies: Homo sapiens, 72 h, ATP content (Cell Titer Glo). The method, then: (§1) The ability of the compounds of the present disclosure to inhibit the growth of KRAS-G12C-expressing cells was assessed by measuring cell viability and calculating GI50 values.
(§2) Tumor cell line NCI-H358 (ATCC accession No. CRL-5807) expressing KRAS-G12C was cultured in an RPMI medium supplemented with 10% fetal bovine serum and penicillin/streptomycin double antibody; tumor cell line MIA PaCa2 (ATCC CRL-1420) expressing KRAS-G12C was cultured in a DMEM medium supplemented with 10% fetal bovine serum, 2.5% horse serum and penicillin/streptomycin double antibody.
(§3) NCI-H358 and MIA-Paca2 cells were seeded on a black clear-bottom 384-well plate (PerkinElmer Cat. No. 6007460) at densities of 1000 and 800 cells, respectively, and allowed to adhere to the walls overnight (8-12 h). After the cells adhered to the walls, the diluted compounds of the present disclosure with a concentration that was 5 times that of the working solution (containing 0.1% dimethyl sulfoxide, namely DMSO, at the final concentration) was added to the experimental groups; the same dilution (containing 0.1% DMSO at the final concentration) as in the experimental groups was added to the control group. After 72 h, the amount of cell proliferation was measured by measuring ATP content using a Cell Titer Glo reagent (Promega Cat. No. G7572) according to the method described in the manuals. Steps are briefly as follows: the cell plate was taken out and equilibrated at normal temperature for 30 min; the Cell Titer Glo reagent with an equal volume to that of the culture was added; the culture plate was placed on a shaker for lysis for 2 min; the culture plate was left standing at normal temperature for 10 min; the optical signal values were read using a microplate reader EnVision (PerkinElmer).
(§4) The inhibition percentages were calculated from the data of the experimental groups relative to the DMSO group, and GI50 was calculated using the data processing software GraphPad by analyzing the inhibitory rates yielded by 9 dosing concentrations produced by 1:3 dilution of the compounds, with the results shown in Table 2.

In assay [3] the test system is MIA PaCa2 cells expressing KRAS-G12C. The assay is described as follows: Cell proliferation assay (Cell Titer Glo), MIA PaCa2. The following applies: Homo sapiens, MIA PaCa-2, 72 h, ATP content (Cell Titer Glo). How it is done: as §1, §2, §3, §4

pIC50: −log10 of the molar value. Where two headings read alike, the source gives them in different places.

In the case of `C=CC(=O)N1CCN2c3nc(=O)n(-c4c(C)ccnc4C(C)C)c4cc(-c5c(O)ccc(F)c5F)c(F)c(c34)OC[C@H]2C1` (atropisomer, axis not shown) [Compound 4A], in assay [1] (Homo sapiens, NCI-H358, 2 h), the pIC50 was 7.42. Further, the figures for the 50% growth inhibitory concentration (GI50) in assay [2] and in assay [3] were 34 nM and 324 nM, respectively.
As to `C=CC(=O)N1CCN2c3nc(=O)n(-c4c(C)ccnc4C(C)C)c4cc(-c5c(C)ccc6[nH]ncc56)c(F)c(c34)OC[C@H]2C1` (atropisomer, axis not shown) [Compound 6A], the negative logarithm of the IC50 (pIC50) in assay [1] (Homo sapiens, NCI-H358, 2 h) was 5.75.
Take `C=CC(=O)N1CCN2c3nc(=O)n(-c4c(C)ccnc4C(C)C)c4nc(-c5c(O)cccc5F)c(F)c(c34)OC[C@H]2C1` (atropisomer, axis not shown) [Compound 7A]: in assay [1] (Homo sapiens, NCI-H358, 2 h), the negative logarithm of the IC50 (pIC50) was 6.71. Besides, the figures for the GI50 in assay [2] and in assay [3] were 133 nM and 629 nM, respectively.
For `C=CC(=O)N1CCN2c3nc(=O)n(-c4c(C)ccnc4C(C)C)c4c(F)c(-c5c(O)cccc5F)nc(c34)OC[C@H]2C1` (atropisomer, axis not shown) [Compound 10A], the pIC50 in assay [1] (Homo sapiens, NCI-H358, 2 h) is 7.19. In addition, the values for the concentration for 50% growth inhibition (GI50) in assay [2] and in assay [3] were 111 nM and 333 nM, respectively.
Taken in the same sequence, the figures for `C=CC(=O)N1CCN2c3nc(=O)n(-c4c(C)ccnc4C(C)C)c4cc(-c5c(N)c(Cl)cc(Cl)c5F)c(F)c(c34)OC[C@H]2C1` (atropisomer, axis not shown) [Compound 11A] were 7.28, 70 nM and 685 nM.
In the case of `C=CC(=O)N1CCN2c3nc(=O)n(-c4c(C)ccnc4C(C)C)c4c(F)c(-c5c(O)cccc5F)c(F)c(c34)OC[C@H]2C1` (atropisomer, axis not shown) [Compound 15A], in assay [1] (Homo sapiens, NCI-H358, 2 h), the pIC50 was 5.20. For the same compound, the 50% growth inhibitory concentration (GI50) in assay [2] stood at 3430 nM; in assay [3], 4520 nM.
Taken in the same sequence, the figures for `C=CC(=O)N1C[C@@H]2COc3c(F)c(-c4c(O)cccc4F)nc4c3c(nc(=O)n4-c3c(C)ccnc3C(C)C)N2[C@@H](C)C1` (single isomer, unassigned) [Compound 8A] were 6.59, 350 nM and 304 nM.
Consider `C=CC(=O)N1CCN(c2ncnc3c(F)c(-c4c(O)cccc4F)c(Cl)cc23)CC1` [ARS-1620], for which the IC50 in assay [1] (Homo sapiens, NCI-H358, 2 h, read-out: p-ERK IC50 (NCI H358, μM)) was determined as 0.325 µM. Moreover, the figures for the 50% growth inhibitory concentration (GI50) in assay [2] and in assay [3] were 510 nM and 1210 nM, respectively.
Turning to `C=CC(=O)N1CCN2c3nc(=O)n(-c4c(C)ccnc4C(C)C)c4cc(-c5c(O)cccc5F)c(F)c(c34)OC[C@@H]2C1` [Compound 1A], the pIC50 in assay [1] was 6.21.
As to `C=CC(=O)N1CCN2c3nc(=O)n(-c4c(C)ccnc4C(C)C)c4cc(-c5c(O)cccc5F)c(F)c(c34)OC[C@@H]2C1` [Compound 1], the pIC50 in assay [1] is 6.54.
Turning to `C=CC(=O)N1CCN2c3nc(=O)n(-c4c(C)ccnc4C(C)C)c4cc(-c5c(O)cccc5F)c(F)c(c34)OC[C@H]2C1` [Compound 2A], in assay [1] (Homo sapiens, NCI-H358, 2 h), the negative-log IC50 (pIC50) was 7.28. The GI50 in assay [2] was 29 nM; in assay [3] it was 48 nM.
Regarding `C=CC(=O)N1CCN2c3nc(=O)n(-c4c(C)ccnc4C(C)C)c4cc(-c5c(O)cccc5F)c(F)c(c34)OC[C@H]2C1` [Compound 2], the pIC50 in assay [1] is 7.00.
Take `C=CC(=O)N1CCN2c3nc(=O)n(-c4c(C)ccnc4C(C)C)c4c(F)c(-c5c(O)cccc5F)nc(c34)OC[C@@H]2C1` [Compound 3]: the pIC50 in assay [1] (Homo sapiens, NCI-H358, 2 h) is 6.19.
On to `C=C(F)C(=O)N1CCN2c3nc(=O)n(-c4c(C)ccnc4C(C)C)c4cc(-c5c(O)cccc5F)c(F)c(c34)OC[C@H]2C1` [Compound 5A], for which the pIC50 in assay [1] (Homo sapiens, NCI-H358, 2 h) is 6.20.
Consider `C=CC(=O)N1CCN2c3nc(=O)n(-c4c(C)ccnc4C(C)C)c4cc(-c5c(N)cccc5F)c(F)c(c34)OC[C@H]2C1` [Compound 12A], for which the pIC50 in assay [1] (Homo sapiens, NCI-H358, 2 h) is 7.49. The values for the GI50 in assay [2] and in assay [3] were 10 nM and 54 nM, respectively.
For the compound `C=CC(=O)N1CCN(c2nc(=O)n(-c3c(C)ccnc3C(C)C)c3c(F)c(-c4c(O)cccc4F)ncc23)[C@@H](C)C1` [Compound 13], in assay [1] (Homo sapiens, NCI-H358, 2 h), the pIC50 was 6.80. Moreover, the GI50 turned out to be 320 nM in assay [2] and 1270 nM in assay [3].
Regarding `C=CC(=O)N1CCN2c3nc(=O)n(-c4c(C)ccnc4C(C)C)c4cc(-c5c(F)ccc6cc[nH]c(=O)c56)c(F)c(c34)OC[C@H]2C1` [Compound 14A], in assay [1] (Homo sapiens, NCI-H358, 2 h), the pIC50 is less than 5.00.

For orientation: pIC50 means −log10 of the IC50, conventionally taken in molar units. By GI50 is commonly meant the concentration at which growth is held to half of that of the control. Broadly, the IC50 is the concentration needed to halve the response being measured.
